Assay results as given in patent US10429393B2, “Tumor deconstruction platform for the analysis of intra-tumor heterogeneity” (NATIONAL CENTRE FOR CELL SCIENCE, priority 2014, dated 2019).

Tests used:
[1] = system: A4 serous ovarian adenocarcinoma xenografts; test: Flow cytometric resolution of residual tumour composition (proliferative hierarchy, ploidy, cell cycle; 18 fractions) after therapy; assay type: in vivo, mice; conditions: for drug sensitive tumour populations (cell targets): individual treatments, grid of FIG. 9
Description: FIG. 8 represents data discussed in Example 3. a. Schematic of paclitaxel administration regime; b. Frequency (±SEM) of tumor fractions based on proliferative hierarchy, ploidy and cell cycle analysis in control and paclitaxel treated where populations 1-18 are as depicted in FIG. 6b, inset indicates frequency of cycling CSCs, 18a-PKH^hi Eu G0, 18b-PKH^hi Eu G1,18c-PKH^hi Eu S, 18d-PKH^hi Eu G2/M, 18e-PKW^hi Aneu G0, 18f-PKH^hi Aneu G1, 18g-PKH^hiAneu S, 18h-PKW^hi Aneu G2/M;*−P<0.05; **−P<0.001; ***−P<0.0001.
FIG. 9 represents the efficacy of various drug regimes through resolution of residual tumor composition after therapy in comparison with a naïve (untreated) tumor for following drug regimes—Pac ST (paclitaxel short-term: 3 doses—48 h intervals—1 week recovery), Pac LT (paclitaxel long-term, 2 cycles of ST regime); Gem ST (gemcitabine short-term, 3 doses—36 h intervals—36 h recovery), Gem LT (gemcitabine long-term, 5 doses—36 h intervals—36 h recovery); 5AzadC (3 doses—48 h intervals—1 week recovery); mAbX (6 doses of an uncharacterised antibody developed in the Bapat lab—48 h intervals—48 h recovery); Gem+mAbX ST combination therapy (3 doses of each drug—48 h intervals—48 h recovery), Gem+mAbX LT combination therapy (2 cycles each comprising of 3 doses of each drug—48 h intervals—1 week recovery); triple drug combination of gemcitabine, mAbX and 5AzadC LT (6 therapeutic cycles, each comprising of 3 doses of each drug at 48 h intervals and 1 week recovery); populations 1-18 and 18a-18h are as defined in FIGS. 6b and 8 respectively.
Standard techniques are used in the process that is illustrative rather than limiting; other common methods are acceptable in the practice of this invention. Tumor tissues were rinsed several times with phosphate buffered saline (PBS) containing antibiotic and/or anti-fungal agents, finely minced and suspended in basal media supplemented with cell dissociation agent(s) with intermittent pipetting to loosen cell aggregates. Various combinations of dissociation agents can be used depending on the tumor type and appearance and including but not being limited to EDTA, EGTA, cocktails of enzymes including trypsin, dispases, collagenases, DNAse, and the like. On dispersion of tumor cell aggregates, enzymatic activity is usually terminated by addition of serum, cells pelleted by centrifugation and washed several times with basal medium and filtered through cell strainers to obtain a single cell suspension. Cell lines are harvested as per established guidelines to obtain a single cell suspension. […] Labeled cells are xenografted in immunocompromised mice, which could be either nude, SCID, Beige/SCID, NOD/SCID, Rag-/Rag-, humanised mice models, or any known experimental xenograft animal model. Control tumors were concurrently generated using unlabeled cells. Xenografts were harvested as per animal experimental protocols and digested to generate single cell suspension from which the different sub-populations were resolved through flow cytometry.
Basic cell parameters FSC and SSC were adjusted with ND filter 1.5/2 with appropriate FSC and SSC thresholds. Cell debris was eliminated based on low FSC—low SSC, doublets using Area—width parameters and RBCs based on nuclear Propidium iodide (PI) staining. PI excitation/emission maxima are at 535/617 nm (PE channel of blue laser used for analysis). Freshly labeled cells are used to set the gates for VMF^hi cells, while TDSCS from unlabeled tumors was used in order to set the gates for VMF^neg cells. Other fluorophores including Hoechst (UV laser), Pyronin Y (PE channel of blue laser), APC (red laser) and others can be incorporated into this scheme based on their compatibility and resolution capabilities of the flow equipment used for data acquisition and/or sorting as per experimental requirements.
G0/G1, S and G2/M (as illustrated in FIG. 3) provides information regarding the proliferative capability of a tumor. […]

[2] = system: A4 serous ovarian adenocarcinoma xenografts; test: Tumour volume of A4 xenografts after drug regime; assay type: in vivo, mice; conditions: paclitaxel i.p. 25 mg/kg body weight; at the end of the regime
[3] = paclitaxel treated vs control, FIG. 8b

SMILES | drug sensitive tumour populations (cell targets) [1] | CSC re-entry into the cell cycle (cycling populations within PKH^hi fraction) ([1]; after therapy vs naive tumor, FIG. 8b inset, FIG. 9) | frequency of aneuploid progenitor cells ([1]; following paclitaxel treatment vs control) | PKH^hi (CSC) fraction [1, 3] | PKH^neg fraction [1, 3] | reduction in tumor volumes [2] [%]
Nc1ncn([C@H]2C[C@H](O)[C@@H](CO)O2)c(=O)n1 [5 AzadC, 5AzadC] | effective against aneuploid fractions | – | – | – | – | –
Nc1ccn([C@@H]2O[C@H](CO)[C@@H](O)C2(F)F)c(=O)n1 [gemcitabine] | effective in short-term sensitization of all populations within the PKH^neg fraction | – | – | – | – | –
CC(=O)O[C@H]1C(=O)[C@@]2(C)[C@H]([C@H](OC(=O)c3ccccc3)[C@]3(O)C[C@H](OC(=O)[C@H](O)[C@@H](NC(=O)c4ccccc4)c4ccccc4)C(C)=C1C3(C)C)[C@]1(OC(C)=O)CO[C@@H]1C[C@@H]2O [paclitaxel] | – | presence of cycling populations that have undergone less than 3-4 doublings within the PKH^hi fraction | Increased frequency of aneuploid progenitor cells | enhanced PKH^hi (CSC) fraction | decreased PKH^neg fraction | 50
